Test results: patent publication US20180186815A1, “PHARMACEUTICAL COMPOSITIONS, METHODS FOR THEIR PREPARATION AND THEIR USE IN THE TREATMENT OF CANCER” (Urifer Ltd., priority 2016, published 2018)
Where two headings read alike, the source gives them in different places.

What was measured:
Format in all cases: cell-based
[1] = system: colon cancer cell line HCT 116; assay: Growth profile / viability of HCT116 colon cancer cells, XTT test; conditions: Homo sapiens, HCT-116, 96 h, Control DMSO = 100%, read-out: percentage of viable cells, HCT116
Experimental: (§1) The effect of the compounds Z522-XXX on the growth profile of cancer cells which express Fer was tested. The cells that were tested were: the colon cancer cell lines HT29 and HCT 116, RKO. The effect of each of the compounds on FS cells, a non malingnant fibroblastic cell line, was also studied.
(§2) Generally, cells were seeded in 96 wells microplates and were left to grow untreated overnight. Each of the compounds was dissolved in DMSO and was then added to each well in a final concentration of 5 μM. The concentration of DMSO in each well was 0.4% v/v. Untreated cells and cells subjected to 0.4% DMSO alone, served as controls. The percentage of viable cells in each well was determined 96 hours after compounds addition, using the XTT test (Berridge, M. V. et al, 2005).

[2] = system: colon cancer cell line HT29; assay: Growth profile / viability of HT29 colon cancer cells, XTT test; conditions: Homo sapiens, HT-29, 96 h, Control DMSO = 100%, read-out: percentage of viable cells, HT29
Experimental: as §1, §2

[3] = system: colon cancer cell line RKO; assay: Growth profile / viability of RKO colon cancer cells, XTT test; conditions: 96 h, Control DMSO = 100%, read-out: percentage of viable cells, RKO
Experimental: as §1, §2

[4] = Viability of FS non malignant fibroblastic cells, XTT test; conditions: FS cells (non-malignant fibroblastic cell line), Control DMSO = 100%, read-out: percentage of viable cells, FS
Experimental: as §1, §2

Row | SMILES | viability at 5 µM ([1]; first HCT116 column) [%] | viability at 5 µM ([1]; second HCT116 column) [%] | viability at 5 µM ([2]; first HT29 column) [%] | viability at 5 µM ([2]; second HT29 column) [%] | viability at 5 µM ([3]; first RKO column) [%] | viability at 5 µM ([3]; second RKO column) [%] | viability at 96 h, 5 µM ([4]; first FS column) [%] | viability at 96 h, 5 µM ([4]; second FS column) [%]
1 | CN1CCN(C(=O)C2CCN(c3nn4cc(-c5ccc(-n6cccn6)cc5)nc4s3)CC2)CC1 [Compound Z522-0167, 2-{4-[(4-methyl-piperazin-1-yl)-carbonyl]piperidin-1-yl}-6-[4-(1H-pyrazol-1-yl)-phenyl]imidazo[2,1-b][1,3,4]-thiadiazole] | 94 | 83 | 87 | 86 | 36 | 47 | 96 | 92
2 | CC1CCN(c2ccc(-c3cn4nc(N5CCC(C(=O)N6CCN(C)CC6)CC5)sc4n3)cc2)CC1 [Compound Z522-0170, 2-{4-[(4-methyl-piperazin-1-yl)carbonyl]piperidin-1-yl}-6-[4-(4-methylpiperidin-1-yl)phenyl]-imidazo[2,1-b]-[1,3,4]thiadiazole] | 2 | 3 | 5 | 2 | 3 | 4 | 90 | 68
3 | CC(C)N1CCN(c2ccc(-c3cn4nc(N5CCC(C(=O)N6CCN(C)CC6)CC5)sc4n3)cc2)CC1 [Compound Z522-0174, 6-[4-(4-isopropyl-piperazin-1-yl)-phenyl]-2-{4-[(4-methylpiperazin-1-yl)carbonyl]-piperidin-1-yl}-imidazo[2,1-b]-[1,3,4]thiadiazole] | 105 | 124 | 77 | 78 | 93 | 97 | 117 | 113
4 | CN1CCN(C(=O)C2CCN(c3nn4cc(-c5ccc(N6CCOCC6)cc5)nc4s3)CC2)CC1 [Compound Z522-0176, 2-{4-[(4-methyl-piperazin-1-yl)-carbonyl]piperidin-1-yl}-6-(4-morpholin-4-yl-phenyl)imidazo[2,1-b][1,3,4]-thiadiazole] | 109 | 116 | 112 | 112 | 92 | 89 | 103 | 100
5 | CN1CCN(C(=O)C2CCN(c3nn4cc(-c5ccc(N(C)CCO)cc5)nc4s3)CC2)CC1 [Compound Z522-0177, 2-{methyl[4-(2-{4-[(4-methyl-piperazin-1-yl)-carbonyl]piperidin-1-yl}imidazo-[2,1-b][1,3,4]-thiadiazol-6-yl)-phenyl]amino} ethanol] | 107 | 104 | 116 | 121 | 97 | 96 | 120 | 116
6 | Cc1c(-c2ccc(N(C)C)cc2)nc2sc(N3CCC(C(=O)N4CCN(C)CC4)CC3)nn12 [Compound Z522-0179, N,N-dimethyl-4-(5-methyl-2-{4-[(4-methyl-piperazin-1-yl)carbonyl]piperidin-1-yl}imidazo-[2,1-b][1,3,4]-thiadiazol-6-yl)-aniline] | 101 | 108 | 103 | 100 | 109 | 103 | 91 | 117
7 | Cc1c(-c2ccc(N3CCN(C)CC3)cc2)nc2sc(N3CCC(C(=O)N4CCN(C)CC4)CC3)nn12 [Compound Z522-0180, 5-methyl-2-{4-[(4-methyl-piperazin-1-yl)carbonyl]piperidin-1-yl}-6-[4-(4-methylpiperazin-1-yl)phenyl]-imidazo[2,1-b]-[1,3,4]thiadiazole] | 94 | 105 | 89 | 90 | 95 | 103 | 101 | 101
8 | Cc1c(-c2ccc(N3CCSCC3)cc2)nc2sc(N3CCC(C(=O)N4CCN(C)CC4)CC3)nn12 [Compound Z522-0184, 5-methyl-2-{4-[(4-methyl-piperazin-1-yl)carbonyl]piperidin-1-yl}-6-(4-thiomorpholin-4-ylphenyl)imidazo [2,1-b][1,3,4]-thiadiazole] | 77 | 87 | 50 | 44 | 41 | 53 | 71 | 86
9 | Cc1c(-c2ccc(N3CCCCCC3)cc2)nc2sc(N3CCC(C(=O)N4CCN(C)CC4)CC3)nn12 [Compound Z522-0185, 6-(4-azepan-1-yl-phenyl)-5-methyl-2-{4-[(4-methyl-piperazin-1-yl)carbonyl]piperidin-1-yl}imidazo-[2,1-b][1,3,4]-thiadiazole] | 40 | 42 | 19 | 11 | 14 | 15 | 92 | 94
10 | Cc1c(-c2ccc(N3CCCC(C)C3)cc2)nc2sc(N3CCC(C(=O)N4CCN(C)CC4)CC3)nn12 (stereo not drawn) [Compound Z522-0186, 5-methyl-2-{4-[(4-methyl-piperazin-1-yl)carbonyl]piperidin-1-yl}-6-[4-(3-methylpiperidin-l-yl)phenyl]-imidazo[2,1-b]-[1,3,4]thiadiazole] | 23 | 26 | 7 | 7 | 8 | 11 | 82 | 94
11 | Cc1c(-c2ccc(-n3cccn3)cc2)nc2sc(N3CCC(C(=O)N4CCN(C)CC4)CC3)nn12 [Compound Z522-0187, 5-methyl-2-{4-[(4-methyl-piperazin-1-yl)-carbonyl]piperidin-1-yl}-6-[4-(1H-pyrazol-1-yl)-phenyl]imidazo[2,1-b][1,3,4]-thiadiazole] | 110 | 97 | 99 | 111 | 56 | 56 | 92 | 94
12 | Cc1c(-c2ccc(N3CCC(C)CC3)cc2)nc2sc(N3CCC(C(=O)N4CCN(C)CC4)CC3)nn12 [Compound Z522-0190, 5-methyl-2-{4-[(4-methyl-piperazin-1-yl)-carbonyl]piperidin-1-yl}-6-[4-(4-methylpiperidin-1-yl)phenyl]-imidazo[2,1-b]-[1,3,4]thiadiazole] | 45 | 51 | 7 | 6 | 9 | 9 | 86 | 101
13 | Cc1c(-c2ccc(N3CCCCCCC3)cc2)nc2sc(N3CCC(C(=O)N4CCN(C)CC4)CC3)nn12 [Compound Z522-0191, 6-(4-azocan-1-ylphenyl)-5-methyl-2-{4-[(4-methylpiperazin-1-yl)carbonyl]-piperidin-1-yl}-imidazo[2,1-b]-[1,3,4]thiadiazole] | 39 | 41 | 12 | 10 | 23 | 35 | 103 | 101
14 | Cc1c(-c2ccc(N3CCCC3)cc2)nc2sc(N3CCC(C(=O)N4CCN(C)CC4)CC3)nn12 [Compound Z522-0195, 5-methyl-2-{4-[(4-methyl-piperazin-1-yl)carbonyl]piperidin-1-yl}-6-(4-pyrrolidin-1-ylphenyl)imidazo [2,1-b][1,3,4]-thiadiazole] | 111 | 113 | 91 | 82 | 80 | 75 | 109 | 119
15 | Cc1c(-c2ccc(N3CCOCC3)cc2)nc2sc(N3CCC(C(=O)N4CCN(C)CC4)CC3)nn12 [Compound Z522-0196, 5-methyl-2-{4-[(4-methyl-piperazin-1-yl)-carbonyl]piperidin-1-yl}-6-(4-morpholin-4-ylphenyl)imidazo [2,1-b][1,3,4]-thiadiazole] | 105 | 104 | 104 | 101 | 88 | 93 | 86 | 94
